Where two headings read alike, the source gives them in different places.
Experiments:
BDL-operated mice = assay type: in vivo
Description: BDL Surgery: On Day 0 of the study, BDL surgery was performed under pentobarbital anesthesia. The mouse's hair was first shaved, the abdominal cavity cut open, and the common bile duct was ligated twice with 7-0 surgical silk. The mouse's peritoneum and the skin were closed with sutures, and the mice were transferred to a clean cage (e.g., resting cage) until recovered from anesthesia. Sham operated mice had their common bile duct exposed but not ligated.
Animals: Pathogen-free 6 weeks of age male C57BL/6J mice were obtained. The animals were maintained in a specific-pathogen free (SPF) facility under controlled conditions of temperature (e.g., 23±2° C.), humidity (e.g., 45±10%), lighting (e.g., 12-hour artificial light and dark cycles; light from 8:00 to 20:00) and air exchange. A high pressure was maintained in the experimental room to prevent contamination of the facility. The animals were housed in TPX cages with a maximum of 4 mice per cage. Sterilized Paper-Clean was used for bedding and replaced once a week. Sterilized solid normal diet was provided ad libitum, being placed in a metal lid on the top of the cage. Pure water was also provided ad libitum from a water bottle equipped with a rubber stopper and a sipper tube. Water bottles were replaced once a week, cleaned, and sterilized in an autoclave and reused. Mice were identified by ear punch and each cage was labeled with a specific identification code.
Animal Monitoring and Sacrifice: The viability, clinical signs and behavior for the mice were monitored daily. Individual body weight was measured daily before treatment during the treatment period. […] The animals were sacrificed at Day 14 after BDL surgery by exsanguination through direct cardiac puncture under isoflurane anesthesia.

NAFLD patients = test: Phase IIa study in NAFLD patients: metabolic, glycemic, lipid and liver parameters; assay type: in vivo, human
Description: The study was planned to include 96 evaluable patients with 32 patients randomized per treatment group.
HOMA-IR/Adipo-IR: HOMA-IR/Adipo-IR levels are a method of measuring insulin resistance. HOMA-IR is calculated by multiplying fasting plasma insulin (FPI) by fasting plasma glucose (FPG), then dividing by the constant 405. Adipo-IR is calculated by multiplying fasting non-esterified fatty acids (NEFA)×fasting insulin. Blood samples were taken to assess HOMA-IR and Adipo-IR at Visit 2/Baseline, Visit 3/Week 2, Visit 4/Week 4, Visit 6/Week 8, Visit 8/Week 12, Visit 10/Week 16 and Follow up Visit 11/Week 20. All subjects were required to have been fasted for a minimum of 8 hours prior to blood sampling. If subjects had not fasted for a minimum of 8 hours, the duration of fasting time was recorded, and subjects encouraged to fast appropriately for the next clinical visit.
Liver stiffness and CAP: Liver stiffness and CAP were assessed using transient elastography (e.g., FibroScan® 502 Touch model or equivalent). Patients were fasted and scanned at the same time of the day, if possible, for baseline (Week 0) and Visit 10 (Week 16). For this assessment the following conditions were met: patients were lying in dorsal decubitus position with the right arm in maximal abduction behind the head, in a similar position to that used for liver biopsy (LB); the tip of the transducer was placed on the skin between the ribs over the right lobe of the liver (the physician took the measurements with the probe placed in the intercostal space); during the FibroScan® examination the choice of M+ or XL+ probe was determined by the Automatic Probe Selection tool (APS) (If, the APS tool advises to use the “XL+ probe” or “switch” continuously between “M+ and XL+ probe”, only the XL+ probe was used); and the operator, assisted by an ultrasonic time motion image, located a portion of the liver which is free of large vascular structures (the depth of measurement was between 35-75 mm for the XL+ probe and 25-65 mm for the M+ probe and the explored volume will be 3 cm^3). For each patient, the operator performed an examination including at least 10 valid measurements or a maximum of 20 attempts, with the XL+ or M+ probe, at the same spot. The entire examination lasted no more than 10-15 minutes. The final stiffness and CAP values was recorded as median values of valid measurements.
Clinical Laboratory Safety Tests: Safety tests were performed for hematology, serum biochemistry, coagulation, lipid profile, and urinalysis: Blood and urine samples were taken as per the Study Flow Chart in Table 19 for routine hematology, serum biochemistry, coagulation and urinalysis tests, along with a Lipid Profile. All samples were analyzed in the central laboratory. All subjects were fasted for a minimum of 8 hours prior to blood sampling. If subjects had not fasted for a minimum of 8 hours, the duration of fasting time was recorded, and subjects encouraged to fast appropriately for the next clinical visit. • Hematology: Full blood count to include red cell count, hemoglobin, hematocrit, white cell count, differential white cell count, platelet count and reticulocyte count. • Serum biochemistry: Urea (blood urea nitrogen; BUN), creatinine, uric acid, total bilirubin, Indirect and Direct Bilirubin, sodium, bicarbonate potassium, phosphorus, calcium chloride, alkaline phosphatase (ALP), aspartate aminotransferase (AST), alanine aminotransferase (ALT), ALT/AST ratio, lactate dehydrogenase (LDH), creatine phosphokinase (CPK), albumin, total protein, cholesterol, triglycerides, glucose, C-reactive protein (CRP). • Coagulation: prothrombin time (PT), international normalized ratio (INR) and activated partial […]. • Lipid Profile: LDL, HDL, and VLDL-C. • Urinalysis: pH, protein, glucose, blood, ketones, leukocytes, leukocyte esterase, bilirubin, specific gravity, urobilinogen and nitrate. […]

[1] = 50 mg/kg PO QD Day 0-13, Day 14, mean ± SD
[2] = 250 mg/kg PO QD Day 0-13, Day 14, mean ± SD
[3] = DS102 50, 250, 500 mg/kg groups vs Vehicle group

SMILES: CC/C=C\C[C@H](O)/C=C/C=C\C/C=C\C/C=C\CCCC(=O)OCC [DS102, 15(S)-hydroxy-(5Z,8Z,11Z,13E,17Z)-eicosapentaenoic acid ethyl ester]
- Body Weight (BDL-operated mice; [1]): 17.4 ± 2.9 g
- Liver Weight (BDL-operated mice; [1]): 1392 ± 328 mg
- Body Weight (BDL-operated mice; [2]): 17.0 ± 2.4 g
- Liver Weight (BDL-operated mice; [2]): 1513 ± 182 mg
- Body Weight (BDL-operated mice; 500 mg/kg PO QD Day 0-13, Day 14, mean ± SD): 16.4 ± 1.6 g
- mean body weight at any day during the study period (BDL-operated mice; [3]): no significant changes
- mean body weight on the day of sacrifice (BDL-operated mice; [3]): no significant differences
- mice found dead before reaching Day 14 (BDL-operated mice; in the DS102 low, middle and high groups (50, 250, 500 mg/kg), Vehicle three out of 15): seven out of 15
- hepatic fat content as assessed by CAP (NAFLD patients): reduced
- insulin sensitivity and glycemic control (NAFLD patients; 1 g or 2 g per day, 16 weeks): improvement
- markers of metabolic overload (NAFLD patients; 1 g or 2 g per day, 16 weeks): statistically significant reduction
- insulin resistance indices (HOMA-IR and adipo-IR levels) (NAFLD patients; 1 g or 2 g per day, Week 16): improvement
- glycemic control (HbA1c levels) (NAFLD patients; 1 g or 2 g per day, baseline to Week 16, dose-dependent): clinically significant improvements
- insulin, glucose, and free fatty acid levels (NAFLD patients; 1 g or 2 g per day, baseline to Week 16 vs placebo): reduction
- alkaline phosphate (ALP) (NAFLD patients; 2 g): reduced
- Triglycerides (median placebo-corrected % change from baseline) (NAFLD patients; 2 g, Week 16, Full Analysis Set): −40.2%
- insulin resistance indices (HOMA-IR and adipo-IR levels) (NAFLD patients; 2 g, Week 16, Per Protocol Set (PPS)): significant improvements
- Triglycerides (median placebo-corrected % change from baseline) (NAFLD patients; 2 g, Week 16, Subgroup: High Triglycerides (>200 mg/dL)): −20.4%
- Triglycerides (median placebo-corrected % change from baseline) (NAFLD patients; 2 g, Week 16, Subgroup: Triglycerides > Upper Limit Normal (>150 mg/dL)): −39.0%
- lipid profile (total cholesterol, VLDL-C, non-HDL-C, RLP cholesterol, triglyceride levels) (NAFLD patients; Week 16, safety analysis set (SAS)): significantly improved

— patent US20240299328A1, “COMPOSITIONS COMPRISING 15-HEPE AND METHODS OF TREATING AND/OR PREVENTING HEMATOLOGIC DISORDERS AND RELATED DISEASES” (Afimmune Limited, priority 2023, published 2024)
